Entries after “also recorded” stand apart in the source; their conditions may differ. Where two headings read alike, the source gives them in different places.
Key:
[1] = tested on: multidrug resistant P. falciparum strain Dd2; experiment: SYBR Green I Plasmodium growth inhibition assay (fixed concentration screen and EC50); type: cell-based, Plasmodium falciparum; details: for DD2: test dataset (macrocyclic library), class label, 1 µM; for inhibition at 1 µM: Pf Dd2, 1 µM, 72 h, read-out: Inhibition One-point (%)
Procedure: P. falciparum cultures were maintained under standard culture conditions in RPMI 1640 medium supplemented with 25 mM HEPES, pH 7.4, 26 mM NaHCO3, 2% dextrose, 15 mg/L hypoxanthine, 25 mg/L gentamycin, and 0.5% Albumax II maintained at 37°C in 5% CO2 and 95% air. Initially, a fixed concentration phenotypic screening was performed against multidrug resistant P. falciparum strain Dd2 (resistant to chloroquine, pyrimethamine, and mefloquine) using a SYBR Green I assay ([Johnson et al., 2007]; [Vossen et al., 2010]). An EVO-150 robotic liquid handler (Tecan, Morrisville, NC) was used to aliquot compounds at a final concentration of 1 µM followed by addition of culture to 96-well plates (Greiner, Monroe, NC) at 1% parasitemia, 2% hematocrit. Plates were incubated for 72 h at 37°C in a humidified atmosphere 5% CO2/95% air prior to freezing. Plates were subsequently thawed and 1X SYBR Green I was added with lysis buffer (20 mM Tris-HCl, 0.08% saponin, 5 mM EDTA, 0.8% Triton X-100). After incubation at room temperature in dark for 1 h, the fluorescent emission was measured at excition and emission wavelengths of 485 nm and 530 nm, respectively, using a BioTek Synergy neo2 (Winooski, VT) plate reader. […] Curve fitting was performed using GraphPad Prism and EC50 value was determined for each compound.

Pf (DD2) = experiment: Validation dataset: previously performed HTS at University of Central Florida, Chakrabarti Laboratory; type: cell-based, Plasmodium falciparum; details: class label
Procedure: The validation dataset consists of the results from previously performed HTS in University of Central Florida at the Chakrabarti Laboratory, consisting of natural-products, kinase inhibitors from commercial vendors Asinex (Winston-Salem, NC)and ChemDiv (San Diego, CA) libraries. This dataset contains 4,497 molecules and their inhibition property. […] Using this external validation dataset, the realistic capabilities of the model are evaluated in the validation process. The raw data supporting the conclusions of this manuscript will be made available by the authors, without any restriction, to any qualified researcher (Supplementary Material 4).

[2] = tested on: human hepatoma cell line HepG2; experiment: MTS based cytotoxicity assay (counter-screen for selectivity); type: cell-based; details: 48 h
Procedure: Selectivity was determined by counter-screening against human hepatoma cell line HepG2 in a MTS (3-(4,5-Dimethylthiazol-2-yl)-5-(3-carboxymethoxyphenyl)-2-(4-sulfophenyl)-2H-tetrazolium) based cytotoxicity assay (CellTiter 96® Aqueous One, Promega, Madison, WI) ([Riss et al., 2004]). Briefly, microtiter plates were seeded with 1,500 cells per well in a 384 well plate and incubated for 24 h at 37°C in 5% CO2/95% air atmosphere. The next day, compounds were added at seven different serially diluted concentrations starting at 25 µM d incubated for additional 48 h at stated conditions. MTS solution was next added to each well, incubated for additional 3 h at 37°C, and absorbance was read at 490 nm using BioTek Synergy neo 2 plate reader. Untreated cells served as control. Curve fitting was performed using GraphPad Prism and EC50 value was determined.

P. falciparum Dd2 = experiment: Stage-specific activity assay (Giemsa smears, YOYO-1 flow cytometry); type: cell-based, Plasmodium falciparum; details: synchronized Dd2, compound at 3X EC50 added at 6, 18, 30, 42 hpi
Procedure: P. falciparum Dd2 cell line was synchronized using a combination of 5% sorbitol and magnetic column separation as described ([Roberts et al., 2016]). Cultures at 2% parasitemia and 2% hematocrit were added to microtiter plate wells and measurements began 6 h post-invasion (6 hpi). Hit compounds were added at 3X EC50 concentration at specified time points. Controls are DHA (3X EC50) and untreated cultures. Giemsa-stained thin smears were made for each time point and an aliquot of the culture was fixed for flow cytometric analysis using 0.04% glutaraldehyde in PBS. After fixing and aspirating, cells were permeabilized with 0.25% Triton-100 followed by treatment with RNase (0.05 mg/ml) for 3 h. Next, YOYO 1 (10.24 µM) fluorescent dye was added and samples were analyzed ([Bouillon et al., 2013]) using Beckman Coulter (Indianapolis, IN) CytoFlex S flowcytometer.

Pf Dd2 = experiment: Rate of killing determination; type: cell-based, Plasmodium falciparum; details: synchronized Dd2, exposure 6 or 12 h, parasitemia tracked for 6 days
Procedure: Pf Dd2 culture was synchronized as described ([Roberts et al., 2016]), plated into 24 well plates at 2% parasitemia and 2% hematocrit at 6 hpi. […] Each well was exposed to the inhibitor for either 6 or 12 h using dihydroartemisinin (DHA) (25 µM) and untreated culture as controls. After washing the compounds off, the media was changed twice a day. The parasitemia was tracked for 6 days after addition of compounds. Thin smears were stained with Giemsa, and parasitemia was counted using microscope.

3D7 = tested on: 3D7; set-up: unit not given here; details: cited from earlier work
[3] = repurposing dataset, 179 approved drugs, ref https://www.nature.com/articles/nchembio806

Row | Molecule | 3D7 (3D7; [3]) | other results
1 | CC(=O)N1CCCN(Cc2ccccc2)CCN(C(=O)c2ccccc2F)Cc2cc(F)c(F)cc21 |  | DD2 [1]: 0 (zero if otherwise)
2 | COc1ccc(-c2nc3n(n2)C(c2cccnc2)C2=C(CC(C)(C)CC2=O)N3)cc1 (centres unmarked) |  | DD2 (Pf (DD2)): 0 (zero if otherwise)
3 | C=CCN1C(=O)COc2ccc(NC(=O)c3oc4cc(C)ccc4c3C)cc21 |  | DD2 (Pf (DD2)): 0 (zero if otherwise)
4 | C=CCOC(=O)C1=C(C)NC(=S)NC1c1ccc(C(C)(C)C)cc1 (centres unmarked) |  | DD2 (Pf (DD2)): 0 (zero if otherwise)
5 | C[C@H]1C(=O)NCCOc2ccccc2C(=O)N[C@H](C(=O)NCCCc2ccccc2)CCC(=O)N1C |  | DD2 [1]: 0 (zero if otherwise)
6 | Cc1noc(C2CCCN2C(=O)CN2CCC3(CCCCc4ccccc4OCCCNC3=O)CC2)n1 (centres unmarked) |  | DD2 [1]: 0 (zero if otherwise)
7 | Cn1cnnc1C1CCCCN1C(=O)CN1CCC2(CCCCc3ccccc3OCCCNC2=O)CC1 (centres unmarked) |  | DD2 [1]: 0 (zero if otherwise)
8 | Cc1cc(C)n(Cc2c(C(=O)N3CCC4(CCCCOC[C@@H]5CCCN5C(=O)c5cccc(c5)OC4)CC3)noc2C)n1 [DC-5921, CC1=NN(CC2=C(C)ON=C2C(=O)N2CCC3(CC2)CCCCOC[C@@H]2CCCN2C(=O)C2=CC(OC3)=CC=C2)C(C)=C1] |  | inhibition at 1 µM ([1]; Plasmodium falciparum): 90%; EC50 ([1]; Plasmodium falciparum, Pf Dd2, 72 h, spread given in nM): 0.9 nM; EC50 [2]: > 25 µM; Stage specific activity (P. falciparum Dd2): active in early stages, late Troph and early schizont; also recorded: inhibit the early stages
9 | CCc1nc2ccccc2c(C(=O)N2CCC3(CCCCOCCNC(=O)c4ccccc4OC3)CC2)c1C [DC-5931, CCC1=NC2=C(C=CC=C2)C(C(=O)N2CCC3(CC2)CCCCOCCNC(=O)C2=C(OC3)C=CC=C2)=C1C] |  | inhibition at 1 µM ([1]; Plasmodium falciparum): 80%; EC50 [2]: > 25 µM; Stage specific activity (P. falciparum Dd2): mostly active in early stages; also recorded: inhibit the early stages
10 | CN1CCOc2ccccc2CCCCCC2(CCN(C(=O)[C@@H](N)c3ccccc3)CC2)C1=O [DC-9235, CN1CCOC2=C(CCCCCC3(CCN(CC3)C(=O)[C@@H](N)C3=CC=CC=C3)C1=O)C=CC=C2] |  | inhibition at 1 µM ([1]; Plasmodium falciparum): 92%; EC50 [2]: > 25 µM
11 | CC(C)C[C@@H](N)C(=O)N1CCC2(CCCCCc3ccccc3OCCN(C)C2=O)CC1 [DC-9236, CC(C)C[C@@H](N)C(=O)N1CCC2(CC1)CCCCCC1=C(OCCN(C)C2=O)C=CC=C1] |  | inhibition at 1 µM ([1]; Plasmodium falciparum): 98%; EC50 [2]: 6.5 µM; Stage specific activity (P. falciparum Dd2): active in late Troph and early Schizont; also recorded: inhibits primarily the mature schizonts; Rate of killing (Pf Dd2): higher elimination in the second life cycle; also recorded: inhibition in the second developmental cycle of Pf causing delayed death
12 | CN1CCOc2ccccc2CCCCCC2(CCN(C(=O)[C@H](N)c3ccccc3)CC2)C1=O [DC-9239, CN1CCOC2=C(CCCCCC3(CCN(CC3)C(=O)[C@H](N)C3=CC=CC=C3)C1=O)C=CC=C2] |  | inhibition at 1 µM ([1]; Plasmodium falciparum): 79%; EC50 [2]: 24.2 µM
13 | O=C1NC(=S)S/C1=C\c1ccc(O)cc1 [O=C1NC(=S)S/C1=C\c1ccc(O)cc1] |  | DD2 (Pf (DD2)): 0 (zero if otherwise)
14 | C=CC[N+]1([C@H]2C[C@H]3[C@@H]4CC[C@H]5C[C@H](O)[C@@H](N6CCOCC6)C[C@]5(C)[C@H]4CC[C@]3(C)[C@H]2OC(C)=O)CCCC1 [Rocuronium bromide] | 52.6 | 
15 | CC[C@@H](C(=O)[C@@H](C)[C@@H](O)[C@H](C)[C@@H]1O[C@@H]([C@@H](CC)C(=O)O)CC[C@@H]1C)[C@H]1O[C@]2(C=C[C@@H](O)[C@]3(CC[C@@](C)([C@H]4CC[C@](O)(CC)[C@H](C)O4)O3)O2)[C@H](C)C[C@@H]1C [Salinomycin] | 99.1 | 
16 | OCc1cc(C(O)CNCCCCCCOCCCCc2ccccc2)ccc1O (centres unmarked) [Salmeterol xinafoate] |  | 3D7 (3D7): 72.5
17 | CC(=O)[O][Pt]([NH2])([Cl])([Cl])([NH]C1CCCCC1)[O]C(C)=O [Satraplatin] | 87.3 | 
18 | CCCCCCCCCCCCCCCCCC[N+](C)(C)C.[Cl-] [Stearyltrimethylammonium chloride] | 78.6 | 
19 | CCCCCCCCNC(C)C(O)c1ccc(SC(C)C)cc1 (centres unmarked) [Suloctidil] | 97.3 | 
20 | CO[C@@H]1[C@H](OC(=O)NC(=O)CCl)CC[C@]2(CO2)[C@H]1[C@@]1(C)O[C@@H]1CC=C(C)C [TNP-470] | 67 | 
21 | CC/C(=C(\c1ccccc1)c1ccc(OCCN(C)C)cc1)c1ccccc1 [Tamoxifen] | 97.5 | 
22 | CC(C)N1CCN(c2ccc(OCC3COC(Cn4cncn4)(c4ccc(Cl)cc4Cl)O3)cc2)CC1 (centres unmarked) [Terconazole] | 56 | 
23 | Nc1nc2nc[nH]c2c(=S)[nH]1 [Thioguanine] | 68.7 | 

Row | Molecule | 3D7 (3D7; [3]) | other results
24 | CN(C)C(=S)SSC(=S)N(C)C [Thiram] | 96.7 | 
25 | CCCCCCCCCCCCCCCC[N+](C)(C)CCN(Cc1ccc(OC)cc1)c1ncccn1 [Thonzonium bromide] | 97.5 | 
26 | CCN(CC)CCOc1ccc2c(c1)C(=O)c1cc(OCCN(CC)CC)ccc1-2 [Tilorone] | 98.9 | 
27 | CC[C@@]1(O)C(=O)OCc2c1cc1n(c2=O)Cc2cc3c(CN(C)C)c(O)ccc3nc2-1 [Topotecan] | 80.1 | 
28 | Nc1nc(N)c2nc(-c3ccccc3)c(N)nc2n1 [Triamterene] | 79.4 | 
29 | CCC(C)C(C(=O)OCC[N+](C)(CC)CC)c1ccccc1 (centres unmarked) [Valethamate] | 79.9 | 
30 | COc1ccc(CCN(C)CCCC(C#N)(c2ccc(OC)c(OC)c2)C(C)C)cc1OC (centres unmarked) [Verapamil] | 98 | 
31 | C=Cc1c(C)c2cc3nc(cc4[nH]c(cc5nc(cc1[nH]2)C(C)=C5CCC(=O)O)c(CCC(=O)OC)c4C)[C@@]1(C)C3=CC=C(C(=O)OC)[C@H]1C(=O)OC [Verteporfin] | 95.4 | 
32 | CC[C@]1(O)C[C@@H]2CN(CCc3c([nH]c4ccccc34)[C@@](C(=O)OC)(c3cc4c(cc3OC)N(C)[C@H]3[C@@](O)(C(=O)OC)[C@H](OC(C)=O)[C@]5(CC)C=CCN6CC[C@]43[C@@H]65)C2)C1 [Vinblastine] | 66.7 | 
33 | CC[C@]1(O)C[C@H]2CN(CCc3c([nH]c4ccccc34)[C@@](C(=O)OC)(c3cc4c(cc3OC)N(C=O)[C@H]3[C@@](O)(C(=O)OC)[C@H](OC(C)=O)[C@]5(CC)C=CCN6CC[C@]43[C@@H]65)C2)C1 [Vincristine] | 69.5 | 
34 | CC[C@]1(O)C[C@@H]2CN(CCc3c([nH]c4ccccc34)[C@@](C(=O)OC)(c3cc4c(cc3OC)N(C)[C@H]3[C@@](O)(C(N)=O)[C@H](O)[C@]5(CC)C=CCN6CC[C@]43[C@@H]65)C2)C1 [Vindesine] |  | 3D7 (3D7): 81.9
35 | CCC1=C[C@@H]2CN(C1)Cc1c([nH]c3ccccc13)[C@@](C(=O)OC)(c1cc3c(cc1OC)N(C)[C@H]1[C@@](O)(C(=O)OC)[C@H](OC(C)=O)[C@]4(CC)C=CCN5CC[C@]31[C@@H]54)C2 [Vinorelbine] | 97.7 | 
36 | Atovaquone | 97 | 
37 | Brilliant green | 93.5 | 
38 | Carboplatin | 76.4 | 
39 | Corticotropin A | 86.4 | 
40 | Doxycycline | 59.7 | 
41 | Gramicidin A | 98.5 | 
42 | Heparin | 79.9 | 
43 | Meclocycline | 68.7 | 
44 | Phenylmercuric acetate |  | 3D7 (3D7): 97.7
45 | Plicamycin | 98.2 | 
46 | Tolonium chloride |  | 3D7 (3D7): 99.5

From publication PMC6974622, “DeepMalaria: Artificial Intelligence Driven Discovery of Potent Antiplasmodials” (Frontiers in Pharmacology, 2020)
